US7071180B2, “Certain arylaliphatic and heteroaryl-aliphatic piperazinyl pyrazines and their use in the treatment of serotonin-related diseases” (Biovitrum AB, priority 1999, dated 2006)
Counter-ions that a name gives are not always drawn.

Row | melting point | Structure (SMILES)
1 | 134 to 137 °C | NC(=O)c1cccc(OCCOc2nccnc2N2CCNCC2)c1 (as salt: maleate) [Example 110, 3-(2-{[3-(1-piperazinyl)-2-pyrazinyl]oxy}ethoxy)benzamide]
2 | 145.9 to 146.3 °C | Clc1ccc(OCCOc2nccnc2N2CCNCC2)cn1 (as salt: maleate) [Example 203, 2-{2-[(6-Chloro-3-pyridinyl)oxy]ethoxy}-3-(1-piperazinyl)pyrazine]
3 | 152 to 156 °C | c1cncc(OCCOc2nc3cscc3nc2N2CCNCC2)c1 (as salt: maleate) [Example 165, 2-[2-(3-Pyridinyloxy)ethoxy]3-(1-piperazinyl)thieno[3,4-b]pyrazine]
4 | 132 to 135 °C | c1cc(OCCOc2nccnc2N2CCNCC2)c2cccnc2c1 (as salt: maleate) [Example 135, 2-(5-Quinolinyloxy)ethyl 3-(1-piperazinyl)-2-pyrazinyl ether]
5 | 137 to 139 °C | c1cncc(OCCOc2nc3ccccc3nc2N2CCNCC2)c1 (as salt: maleate) [Example 162, 2-[2-(3-Pyridinyloxy)ethoxy]-3-(1-piperazinyl)quinoxaline]
6 | 78 to 81 °C | c1ccc(Nc2cccc(OCCOc3nccnc3N3CCNCC3)c2)cc1 (as salt: fumarate) [Example 107, N-Phenyl-3-(2-{[3-(1-piperazinyl)-2-pyrazinyl]oxy}ethoxy)aniline]

Continued, compound first:

Row | Structure (SMILES) | melting point
7 | c1ccc2c(c1)OC[C@@H](COc1nccnc1N1CCNCC1)O2 (as salt: hydrochloride) [Example 148, 2-[(2S)-2,3-Dihydro-1,4-benzodioxin-2-ylmethoxy]-3-(1-piperazinyl)pyrazine] | 160 °C (dec.)
8 | COc1ccccc1CCCOc1nccnc1N1CCNCC1 (as salt: maleate) [Example 211, 2-[3-(2-Methoxyphenyl)propoxy]-3-(1-piperazinyl)pyrazine] | 132 to 133 °C
9 | C[C@@H]1CNCCN1c1nccnc1OCCOc1cccnc1 (as salt: hydrochloride) [Example 173, (2R)-Methyl-1-{3-[2-(3-pyridinyloxy)ethoxy]-2-pyrazinyl}piperazine] | 180 to 183 °C
10 | Cc1cccc(CCCOc2nccnc2N2CCNCC2)n1 (as salt: maleate) [Example 128, 2-[3-(6-Methyl-2-pyridinyl)propoxy]-3-(1-piperazinyl)pyrazine] | 134 to 136 °C
11 | CN1CC(COc2nccnc2N2CCNCC2)Oc2ccccc21 (centres unmarked) (as salt: hydrochloride) [Example 131, 2-(4-Methyl-3,4-dihydro-2H-1,4-benzoxazin-2-ylmethoxy)-3-(1-piperazinyl)-pyrazine] | 119 °C (dec.)
12 | Brc1ncccc1OCCOc1nccnc1N1CCNCC1 (as salt: fumarate) [Example 195, 2-{2-[(2-Bromo-3-pyridinyl)oxy]ethoxy}-3-(1-piperazinyl)pyrazine] | 202 °C
13 | c1cnc2ccc(COc3nccnc3N3CCNCC3)cc2c1 (as salt: fumarate) [Example 213, 3-(1-Piperazinyl)-2-pyrazinyl 6-quinolinylmethyl ether] | 207 to 209 °C
14 | Fc1cc(F)c(F)c(OCCOc2nccnc2N2CCNCC2)c1 (as salt: fumarate) [Example 106, 2-[2-(2,3,5-Trifluorophenoxy)ethoxy]-3-(1-piperazinyl)pyrazine] | 158 to 159 °C
15 | Fc1cccc(F)c1OCCOc1nccnc1N1CCNCC1 [Example 83, 2-(2,6-Difluorophenoxy)ethyl 3-(1-piperazinyl)-2-pyrazinyl ether] | 101 to 102 °C
16 | c1cnc(N2CCNCC2)c(OCC2CCCO2)n1 (centres unmarked) (as salt: hydrochloride) [Example 124, 2-(1-Piperazinyl)-3-(tetrahydro-2-furanylmethoxy)pyrazine] | 130 to 136 °C
17 | CCC1CNCCN1c1nccnc1OCCOc1cccnc1 (centres unmarked) (as salt: fumarate) [Example 178, 2-Ethyl-1-{3-[2-(3-pyridinyloxy)ethoxy]-2-pyrazinyl}piperazine] | 125 to 127 °C
